In brackets after ≈: the same amount, converted by molar mass.
Experiments:
A-431 = test: cells; format: functional, cell-based; details: Homo sapiens
Description: Inhibition of A431 cell proliferation

SW-620 = test: cells; format: functional, cell-based; details: Homo sapiens
Description: Inhibition of SW-620 cell proliferation

SK-BR-3 = test: cells; format: functional, cell-based; details: Homo sapiens
Description: Inhibition of SKBR-3 cell proliferation

[1] = molecular target: Epidermal growth factor receptor (Homo sapiens, UniProt P00533)
Description: Inhibition of Epidermal Growth Factor Receptor (EGFR) autophosphorylation

[2] = molecular target: Receptor tyrosine-protein kinase erbB-2 (Homo sapiens, UniProt P04626)
Sequence of Receptor tyrosine-protein kinase erbB-2 (P04626 whole entry): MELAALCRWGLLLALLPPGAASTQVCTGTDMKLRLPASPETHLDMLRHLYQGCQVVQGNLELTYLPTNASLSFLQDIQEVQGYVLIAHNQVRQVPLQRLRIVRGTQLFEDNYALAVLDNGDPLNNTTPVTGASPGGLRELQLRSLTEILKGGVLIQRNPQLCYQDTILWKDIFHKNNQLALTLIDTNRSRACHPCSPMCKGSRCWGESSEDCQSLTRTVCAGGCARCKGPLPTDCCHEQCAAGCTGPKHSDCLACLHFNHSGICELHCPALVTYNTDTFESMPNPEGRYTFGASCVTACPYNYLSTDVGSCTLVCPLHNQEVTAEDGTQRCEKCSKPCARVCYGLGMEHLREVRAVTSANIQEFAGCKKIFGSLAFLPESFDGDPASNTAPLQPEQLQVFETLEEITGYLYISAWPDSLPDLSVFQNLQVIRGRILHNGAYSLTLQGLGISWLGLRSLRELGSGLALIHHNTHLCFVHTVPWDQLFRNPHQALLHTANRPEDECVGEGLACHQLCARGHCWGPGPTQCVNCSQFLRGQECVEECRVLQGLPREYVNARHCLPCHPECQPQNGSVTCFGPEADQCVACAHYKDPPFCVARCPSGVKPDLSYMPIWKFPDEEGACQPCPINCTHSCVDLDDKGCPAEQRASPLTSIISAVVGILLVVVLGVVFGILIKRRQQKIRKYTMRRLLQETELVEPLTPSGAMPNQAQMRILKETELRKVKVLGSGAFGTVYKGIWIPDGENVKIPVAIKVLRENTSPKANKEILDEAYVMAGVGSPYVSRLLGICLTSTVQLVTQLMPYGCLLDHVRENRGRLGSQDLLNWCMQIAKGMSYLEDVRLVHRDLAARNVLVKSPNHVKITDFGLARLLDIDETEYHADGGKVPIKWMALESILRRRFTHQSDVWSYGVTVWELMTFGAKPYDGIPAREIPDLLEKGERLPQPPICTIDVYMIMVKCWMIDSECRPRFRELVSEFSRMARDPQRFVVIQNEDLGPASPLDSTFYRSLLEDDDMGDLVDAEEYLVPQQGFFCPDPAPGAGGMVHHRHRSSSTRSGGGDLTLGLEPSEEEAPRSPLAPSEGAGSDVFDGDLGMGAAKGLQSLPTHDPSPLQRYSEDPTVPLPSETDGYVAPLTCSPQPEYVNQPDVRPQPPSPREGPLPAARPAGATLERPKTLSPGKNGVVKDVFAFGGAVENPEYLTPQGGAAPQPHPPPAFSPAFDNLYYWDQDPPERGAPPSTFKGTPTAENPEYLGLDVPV
Description: Inhibition of human epidermal growth factor receptor-2 autophosphorylation

Sequence of Epidermal growth factor receptor (P00533 whole entry): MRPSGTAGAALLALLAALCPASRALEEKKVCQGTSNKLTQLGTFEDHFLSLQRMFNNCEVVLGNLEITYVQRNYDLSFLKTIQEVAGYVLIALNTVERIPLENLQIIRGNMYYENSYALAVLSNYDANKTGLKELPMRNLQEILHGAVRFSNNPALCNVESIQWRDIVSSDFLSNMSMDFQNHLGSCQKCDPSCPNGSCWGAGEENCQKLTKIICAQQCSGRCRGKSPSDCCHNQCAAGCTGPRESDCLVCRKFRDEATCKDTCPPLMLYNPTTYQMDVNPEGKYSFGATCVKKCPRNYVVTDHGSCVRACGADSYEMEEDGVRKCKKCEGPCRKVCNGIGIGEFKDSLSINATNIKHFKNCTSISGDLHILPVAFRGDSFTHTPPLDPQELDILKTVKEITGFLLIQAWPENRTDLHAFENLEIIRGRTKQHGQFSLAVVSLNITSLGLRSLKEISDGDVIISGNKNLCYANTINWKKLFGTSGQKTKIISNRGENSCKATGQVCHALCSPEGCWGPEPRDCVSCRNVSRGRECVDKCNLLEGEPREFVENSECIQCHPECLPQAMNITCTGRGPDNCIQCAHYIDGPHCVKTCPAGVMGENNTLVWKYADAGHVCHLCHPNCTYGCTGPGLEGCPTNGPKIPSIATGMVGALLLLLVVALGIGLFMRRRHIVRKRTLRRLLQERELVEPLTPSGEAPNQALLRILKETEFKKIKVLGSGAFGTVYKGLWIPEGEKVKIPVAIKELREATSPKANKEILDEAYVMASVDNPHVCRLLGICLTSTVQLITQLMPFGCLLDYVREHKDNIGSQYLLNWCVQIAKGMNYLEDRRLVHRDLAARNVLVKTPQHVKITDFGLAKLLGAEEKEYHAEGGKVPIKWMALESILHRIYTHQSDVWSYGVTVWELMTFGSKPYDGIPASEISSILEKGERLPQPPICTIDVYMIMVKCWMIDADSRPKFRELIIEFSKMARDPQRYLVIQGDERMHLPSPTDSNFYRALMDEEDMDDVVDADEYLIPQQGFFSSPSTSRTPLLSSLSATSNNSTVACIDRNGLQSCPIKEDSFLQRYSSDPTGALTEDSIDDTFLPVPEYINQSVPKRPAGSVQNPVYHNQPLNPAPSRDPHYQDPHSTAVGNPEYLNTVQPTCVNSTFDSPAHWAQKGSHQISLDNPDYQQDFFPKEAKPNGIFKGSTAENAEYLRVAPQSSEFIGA

Row | IC50 (A-431) [µg/mL] | IC50 (SW-620) [µg/mL] | IC50 (SK-BR-3) [µg/mL] | IC50 [1] [nM] | IC50 [2] [nM] | SMILES
1 | 0.083 (≈ 0.171 µM) | 1.45 (≈ 2.98 µM) | 0.102 (≈ 0.21 µM) | – | – | C=CC(=O)Nc1cc2c(Nc3ccc(F)c(Cl)c3)ncnc2cc1OCCCN1CCOCC1 [CANERTINIB]
2 | 0.03 (≈ 0.0641 µM) | 0.317 (≈ 0.677 µM) | 0.007 (≈ 0.015 µM) | – | 1230 | CCOc1cc2ncc(C#N)c(Nc3ccc(F)c(Cl)c3)c2cc1NC(=O)/C=C/CN(C)C [PELITINIB]
3 | 0.25 (≈ 0.531 µM) | > 5 | 0.332 (≈ 0.705 µM) | 1040 | 14700 | COc1cc2ncc(C#N)c(Nc3ccc(F)c(Cl)c3)c2cc1OCCCN1CCOCC1
4 | 0.173 (≈ 0.414 µM) | 0.68 (≈ 1.63 µM) | 0.071 (≈ 0.17 µM) | 850 | 11800 | C#Cc1cccc(Nc2c(C#N)cnc3cc(OCCOC)c(OCCOC)cc23)c1

Row | SMILES | IC50 (A-431) [µg/mL] | IC50 (SW-620) [µg/mL] | IC50 (SK-BR-3) [µg/mL] | IC50 [1] [nM] | IC50 [2] [nM]
5 | C=CC(=O)Nc1cc2c(Nc3ccc(F)c(Cl)c3)c(C#N)cnc2cc1OCCCN1CCOCC1 | 0.12 (≈ 0.235 µM) | 0.77 (≈ 1.51 µM) | 0.03 (≈ 0.0588 µM) | 80 | 1690

— ChEMBL document CHEMBL1135208, “Syntheses and EGFR and HER-2 kinase inhibitory activities of 4-anilinoquinoline-3-carbonitriles: analogues of three important 4-anilinoquinazolines currently undergoing clinical evaluation as therapeutic antitumor agents” (Bioorg Med Chem Lett, 2002)
